Laboratory results reported in patent publication US12338256B2, “Aza-tetracyclic oxazepine compounds and uses thereof” (Genentech, Inc., priority 2022, dated 2025).
pIC50: −log10 of the molar value. Read-outs that look alike come from different tables or passages of the source.

How the values were obtained:
[1] = biological target: KRAS G12D (Homo sapiens, UniProt P01116, G12D); assay: KRAS G12D LoEnz Biochemical Assay, BODIPY-GDP Exchange TR-FRET (Example 500); settings: read-out: KRas (G12D) GDP HTRF IC50
Chain of KRAS G12D (P01116 1-188 isoform P01116-2 G12D): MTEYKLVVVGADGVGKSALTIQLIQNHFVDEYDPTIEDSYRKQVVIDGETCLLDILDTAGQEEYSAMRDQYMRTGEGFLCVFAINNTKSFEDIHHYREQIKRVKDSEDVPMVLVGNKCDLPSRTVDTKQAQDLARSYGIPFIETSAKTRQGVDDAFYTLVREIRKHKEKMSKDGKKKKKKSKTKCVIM
Method: Example 500: KRAS G12D LoEnz Biochemical Assay, BODIPY-GDP Exchange TR-FRET. Biochemical compound potencies are assessed by evaluating inhibition of SOS1-mediated nucleotide exchange in KRAS G12D. In this assay, the SOS1-promoted exchange of fluorescently-labeled GDP (BOPIDY-GDP) is monitored by time-resolved fluorescence resonance energy transfer (TR-FRET). Compounds solubilized in DMSO are dispensed as concentration series into 384-well white assay plates. A preformed complex of biotin-tagged recombinant human KRAS (0.06 nM mutant G12D) and 0.06 nM terbium-labeled streptavidin (CisBIO) prepared in 10 uL/well assay buffer (20 mM HEPES, pH 7.5, 50 mM NaCl, 10 mM MgCl2, 0.01% Tween-20 and 1 mM dithiothreitol) is added and allowed to incubate for 10-minutes at room temperature. The reaction is initiated with the addition of 5 uL 300 nM recombinant human SOS1 and 300 nM BODIPY-GDP in assay buffer. After a 120-minute incubation, the fluorescence is measured with excitation at 337 nm and emission at 490 and 520 nm. The TR-FRET ratio is determined as the fluorescence at 520 nm divided by the fluorescence at 490 nm multiplied by 10,000. The results are normalized to percent inhibition based on control samples: DMSO (0% inhibition) and control compound at a concentration that inhibits completely (100% inhibition). The normalized TR-FRET results are plotted against compound concentration, and the data are fit to a 4-parameter Hill equation to determine the IC50 values.

[2] = test system: HPAC (homozygous mutant KRAS G12D human pancreatic cell line); assay: KRAS 3D-Cell Proliferation Assay, HPAC (Example 503); assay type: cell-based; settings: Homo sapiens, HPAC, 168 h, HPAC 3D culture, 7 days, CellTiter-Glo 3D; read-out: Prolif HPAC 3D ATP IC50
Summary of the method: (§1)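 Cells grown in 3D in ultra-low attachment plates (RPMI-1640 with 10% FBS and 2 mM L-glutamine) received compound dilution series after overnight attachment, at 0.3% DMSO final, for 7 days at 37° C. ATP luminescence (CellTiter-Glo 3D) normalized to DMSO and 1 μM staurosporine; IC50 from 4-parameter Hill fit.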

[3] = test system: H1975 (KRAS wild type human lung adenocarcinoma cell line); assay: KRAS 3D-Cell Proliferation Assay, H1975 (Example 503); assay type: cell-based; settings: Homo sapiens, NCI-H1975, 168 h, H1975 3D culture, 7 days, CellTiter-Glo 3D; read-out: Prolif H1975 3D ATP IC50
Summary of the method: as §1

[4] = test system: AsPC-1 (homozygous mutant KRAS G12D human pancreatic cell line); assay: KRAS 3D-Cell Proliferation Assay, AsPC-1 (Example 503); assay type: cell-based; settings: Homo sapiens, ASPC1, 168 h, AsPC-1 3D culture, 7 days, CellTiter-Glo 3D; read-out: Prolif AsPC-1 3D ATP IC50
Summary of the method: as §1

[5] = test system: PC-9 (KRAS wild type human lung adenocarcinoma cell line); assay: KRAS 3D-Cell Proliferation Assay, PC-9 (Example 503); assay type: cell-based; settings: 168 h, PC-9 3D culture, 7 days, CellTiter-Glo 3D, read-out: Prolif PC9 3D ATP IC50
Summary of the method: as §1

[6] = biological target: KRAS WT (Homo sapiens, UniProt P01116); assay: KRAS WI Biochemical Assay, BODIPY-GDP Exchange TR-FRET (Example 501; 3 nM KRAS WT, 3 nM SOS1, 60-minute incubation)
Chain of KRAS WT (P01116 1-188 isoform P01116-2): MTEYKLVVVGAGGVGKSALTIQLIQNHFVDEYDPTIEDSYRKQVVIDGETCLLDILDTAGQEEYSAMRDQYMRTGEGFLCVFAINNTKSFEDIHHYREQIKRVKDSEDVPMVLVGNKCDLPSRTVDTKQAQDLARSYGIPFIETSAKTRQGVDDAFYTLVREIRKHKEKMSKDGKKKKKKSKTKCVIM
Method: Example 501: KRAS WI Biochemical Assay, BODIPY-GDP Exchange TR-FRET. Biochemical compound potencies are assessed by evaluating inhibition of SOS1-mediated nucleotide exchange in KRAS WT. In this assay, the SOS1-promoted exchange of fluorescently-labeled GDP (BOPIDY-GDP) is monitored by time-resolved fluorescence resonance energy transfer (TR-FRET). Compounds solubilized in DMSO are dispensed as concentration series into 384-well white assay plates, and 5 uL assay buffer (20 mM HEPES, pH 7.5, 50 mM NaCl, 10 mM MgCl2, 0.01% Tween-20 and 1 mM dithiothreitol) is added just prior to the start of the assay. A preformed complex of 3 nM biotin-tagged recombinant human KRAS WT and 0.3 nM terbium-labeled streptavidin (CisBIO) prepared in 5 uL/well assay buffer is added and allowed to incubate for 10-minutes at room temperature. The reaction is initiated with the addition of 5 uL 3 nM recombinant human SOS1 and 300 nM BODIPY-GDP in assay buffer. After a 60-minute incubation, the fluorescence is measured with excitation at 337 nm and emission at 490 and 520 nm. The TR-FRET ratio is determined as the fluorescence at 520 nm divided by the fluorescence at 490 nm multiplied by 10,000. The results are normalized to percent inhibition based on control samples: DMSO (0% inhibition) and control compound at a concentration that inhibits completely (100% inhibition). The normalized TR-FRET results are plotted against compound concentration, and the data are fit to a 4-parameter Hill equation to determine the IC50 values.

[7] = SOS1-mediated BODIPY-GDP exchange TR-FRET
[8] = SOS1-mediated BODIPY-GDP exchange, read-out: KRas(wt) GDP HTRF IC50
[9] = SOS1-mediated BODIPY-GDP exchange TR-FRET, read-out: KRas HTRF IC50

Row | Structure (SMILES) | pIC50 ([1]; BODIPY-GDP exchange) | pIC50 [1, 7] | pIC50 [2] | pIC50 [3] | pIC50 [4] | pIC50 [5] | pIC50 [6, 8] | pIC50 [6, 9]
1 | Cc1c(F)c(N)cc(-c2nc3c4c(nc(OC[C@]5(CN6CC7(COC7)C6)CC5(F)F)nc4c2F)N2C[C@H]4CC[C@H](N4)[C@H]2[C@H](C)O3)c1C(F)(F)F (single isomer, unassigned) [165 b] | 10.00 | – | – | – | – | – | – | –
2 | Cc1c(F)c(N)cc(-c2nc3c4c(nc(OC[C@@]56CCCN5C[C@H](F)C6)nc4c2F)N2C[C@H]4CC[C@H](N4)[C@H]2[C@@H](C(F)(F)F)O3)c1C(F)(F)F [Compound 246, 2-Fluoro-5-((5S,5aS,6S,9R)-1-fluoro-12-(((2R,7aS)-2-fluorotetrahydro-1H-pyrrolizin-7a(5H)-yl)methoxy)-5-(trifluoromethyl)-5a,6,7,8,9,10-hexahydro-5H-4-oxa-3,10a,11,13,14-pentaaza-6,9-methanonaphtho[1,8-ab]heptalene-2-yl)-3-methyl-4-(trifluoromethyl)aniline] | – | 6.51 | 5.70 | 4.70 | – | – | – | –
3 | C#Cc1cccc2cc(O)cc(-c3nc4c5c(nc(OC[C@]67CCN6CC(F)(F)C7)nc5c3F)N3C[C@H]5CC[C@H](N5)[C@H]3[C@H](C)O4)c12 (single isomer, unassigned) [Compound 19] | 10.10 | – | 8.48 | 6.66 | 8.30 | 5.06 | – | –
4 | Fc1c(-c2cccc3cccc(Cl)c23)nc2c3c(ncnc13)N1C[C@H]3CC[C@H](N3)[C@H]1CO2 [Compound 53, (5aS,6S,9R)-2-(8-Chloronaphthalen-1-yl)-1-fluoro-5a,6,7,8,9,10-hexahydro-5H-4-oxa-3,10a,11,13,14-pentaaza-6,9-methanonaphtho[1,8-ab]heptalene] | – | – | – | – | – | – | ≤ 3.70 | –
5 | Cc1nc(N)c(F)c(-c2nc3c4c(nc(OC[C@@]56CCCN5CC5(CC5(F)F)C6)nc4c2F)N2C[C@H]4CC[C@H](N4)[C@H]2[C@H](C)O3)c1C(F)(F)F (stereo partly drawn) [Compound 221, 4-((5S,5aS,6S,9R)-12-(((7a′S)-2,2-Difluorodihydro-1′H,3′H-spiro[cyclopropane-1,2′-pyrrolizin]-7a′(5′H)-yl)methoxy)-1-fluoro-5-methyl-5a,6,7,8,9,10-hexahydro-5H-4-oxa-3,10a,11,13,14-pentaaza[6,9]methanonaphtho[1,8-ab]heptalene-2-yl)-3-fluoro-6-methyl-5-(trifluoromethyl)pyridin-2-amine] | – | 9.41 | 8.84 | 6.30 | 8.92 | – | – | 8.00
6 | Cc1nc(N)cc(-c2nc3c4c(nc(OCC5(CN6CC7COCC(C6)C7(F)F)CC5)nc4c2F)N2C[C@H]4CC[C@H](N4)[C@H]2[C@H](C)O3)c1C(F)(F)F [Compound 266, 4-((5S,5aS,6S,9R)-12-((1-((9,9-difluoro-3-oxa-7-azabicyclo[3.3.1]nonan-7-yl)methyl)cyclopropyl)methoxy)-1-fluoro-5-methyl-5a,6,7,8,9,10-hexahydro-5H-4-oxa-3,10a,11,13,14-pentaaza-6,9-methanonaphtho[1,8-ab]heptalene-2-yl)-6-methyl-5-(trifluoromethyl)pyridin-2-amine] | – | 8.52 | – | – | – | – | – | –
7 | Cc1c(Cl)c(N)cc(-c2nc3c4c(nc(OC[C@@]56CCCN5C[C@H](F)C6)nc4c2F)N2C[C@H]4CC[C@H](N4)[C@H]2[C@H](C)O3)c1C(F)(F)F (single isomer, unassigned) [Compound 200] | – | 10.00 | 8.17 | 6.23 | – | – | – | 8.17
8 | Cc1cc(N)c(Cl)c(-c2nc3c4c(nc(OC[C@@]56CCCN5C[C@H](F)C6)nc4c2Cl)N2C[C@H]4CC[C@H](N4)[C@H]2[C@H](C)O3)c1C(F)(F)F (single isomer, unassigned) [240 (atrop. 2)] | – | 9.85 | – | – | 8.82 | – | – | –
9 | Cc1cc(N)c(Cl)c(-c2nc3c4c(nc(OC[C@@]56CCCN5C[C@H](F)C6)nc4c2F)N2C[C@H]4CC[C@H](N4)[C@H]2[C@H](C)O3)c1C(F)(F)F (single isomer, unassigned) [Compound 199] | – | 9.77 | 9.01 | 5.98 | 8.39 | – | – | 8.02
10 | Nc1nc2c(-c3nc4c5c(ncnc5c3F)N3C[C@H]5CC[C@H](N5)[C@H]3CO4)ccc(F)c2s1 [Compound 55, 7-fluoro-4-((5aS,6S,9R)-1-fluoro-5a,6,7,8,9,10-hexahydro-5H-4-oxa-3,10a,11,13,14-pentaaza-6,9-methanonaphtho[1,8-ab]heptalen-2-yl)benzo[d]thiazol-2-amine] | – | – | – | – | ≤ 4.70 | 4.89 | ≤ 3.70 | –
11 | C[C@@H]1Oc2nc(-c3cc(N)nc4ccccc34)c(F)c3nc(OC[C@]45CCN4CC(F)(F)C5)nc(c23)N2C[C@H]3CC[C@H](N3)[C@@H]12 [Compound 79, 4-((5S,5aS,6S,9R)-12-(((R)-3,3-Difluoro-1-azabicyclo[3.2.0]heptan-5-yl)methoxy)-1-fluoro-5-methyl-5a,6,7,8,9,10-hexahydro-5H-4-oxa-3,10a,11,13,14-pentaaza-6,9-methanonaphtho[1,8-ab]heptalen-2-yl)quinolin-2-amine] | 7.64 | – | – | – | 5.39 | ≤ 4.70 | – | –
12 | Cc1cc(N)c(Cl)c(-c2nc3c4c(nc(OC[C@@]56CCCN5C[C@H](F)C6)nc4c2Cl)N2C[C@H]4CC[C@H](N4)[C@H]2[C@H](C)O3)c1C(F)(F)F (single isomer, unassigned) [240 (atrop. 1)] | – | 7.35 | – | – | – | – | – | –
13 | C[C@@H]1Oc2nc(-c3cncc4cccc(Cl)c34)c(F)c3nc(OC[C@@]45CCCN4C[C@H](F)C5)nc(c23)N2C[C@H]3CC[C@H](N3)[C@@H]12 [Compound 38, (5S,5aS,6S,9R)-2-(5-Chloroisoquinolin-4-yl)-1-fluoro-12-(((2R,7aS)-2-fluorotetrahydro-1H-pyrrolizin-7a(5H)-yl)methoxy)-5-methyl-5a,6,7,8,9,10-hexahydro-5H-4-oxa-3,10a,11,13,14-pentaaza-6,9-methanonaphtho[1,8-ab]heptalene] | – | – | 7.02 | 5.55 | 6.57 | 5.13 | – | –
14 | Cc1cc(N)c(F)c(-c2nc3c4c(nc(OCC56CCN5CC(F)(F)C6)nc4c2F)N2C[C@H]4CC[C@H](N4)[C@H]2[C@H](C)O3)c1C(F)(F)F (mixture of isomers) [Compound 33, 3-((5S,5aS,6S,9R)-12-((3,3-Difluoro-1-azabicyclo[3.2.0]heptan-5-yl)methoxy)-1-fluoro-5-methyl-5a,6,7,8,9,10-hexahydro-5H-4-oxa-3,10a,11,13,14-pentaaza-6,9-methanonaphtho[1,8-ab]heptalen-2-yl)-2-fluoro-5-methyl-4-(trifluoromethyl)aniline] | – | – | 8.89 | 5.73 | 8.43 | 5.41 | – | –
